Measurements published in paper PMC6934184, “Selective DNA-PKcs inhibition extends the therapeutic index of localized radiotherapy and chemotherapy” (The Journal of Clinical Investigation, 2019).

Molecular target: T1, MET M1250T (Homo sapiens, UniProt P08581, M1250T)
T1 construct: purchased Thermo Fisher Scientific (Life Technologies) SelectScreen
Assay: SelectScreen Z'LYTE
Type: biochemical
In short: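 SelectScreen broad panel; activity (Z'LYTE, Adapta) plus binding formats. ATP: Km app for CSF1R Z'LYTE; 10 for CAMK1 Adapta. Readout = % per kinase.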

T1 sequence (P08581 25-1390 M1250T): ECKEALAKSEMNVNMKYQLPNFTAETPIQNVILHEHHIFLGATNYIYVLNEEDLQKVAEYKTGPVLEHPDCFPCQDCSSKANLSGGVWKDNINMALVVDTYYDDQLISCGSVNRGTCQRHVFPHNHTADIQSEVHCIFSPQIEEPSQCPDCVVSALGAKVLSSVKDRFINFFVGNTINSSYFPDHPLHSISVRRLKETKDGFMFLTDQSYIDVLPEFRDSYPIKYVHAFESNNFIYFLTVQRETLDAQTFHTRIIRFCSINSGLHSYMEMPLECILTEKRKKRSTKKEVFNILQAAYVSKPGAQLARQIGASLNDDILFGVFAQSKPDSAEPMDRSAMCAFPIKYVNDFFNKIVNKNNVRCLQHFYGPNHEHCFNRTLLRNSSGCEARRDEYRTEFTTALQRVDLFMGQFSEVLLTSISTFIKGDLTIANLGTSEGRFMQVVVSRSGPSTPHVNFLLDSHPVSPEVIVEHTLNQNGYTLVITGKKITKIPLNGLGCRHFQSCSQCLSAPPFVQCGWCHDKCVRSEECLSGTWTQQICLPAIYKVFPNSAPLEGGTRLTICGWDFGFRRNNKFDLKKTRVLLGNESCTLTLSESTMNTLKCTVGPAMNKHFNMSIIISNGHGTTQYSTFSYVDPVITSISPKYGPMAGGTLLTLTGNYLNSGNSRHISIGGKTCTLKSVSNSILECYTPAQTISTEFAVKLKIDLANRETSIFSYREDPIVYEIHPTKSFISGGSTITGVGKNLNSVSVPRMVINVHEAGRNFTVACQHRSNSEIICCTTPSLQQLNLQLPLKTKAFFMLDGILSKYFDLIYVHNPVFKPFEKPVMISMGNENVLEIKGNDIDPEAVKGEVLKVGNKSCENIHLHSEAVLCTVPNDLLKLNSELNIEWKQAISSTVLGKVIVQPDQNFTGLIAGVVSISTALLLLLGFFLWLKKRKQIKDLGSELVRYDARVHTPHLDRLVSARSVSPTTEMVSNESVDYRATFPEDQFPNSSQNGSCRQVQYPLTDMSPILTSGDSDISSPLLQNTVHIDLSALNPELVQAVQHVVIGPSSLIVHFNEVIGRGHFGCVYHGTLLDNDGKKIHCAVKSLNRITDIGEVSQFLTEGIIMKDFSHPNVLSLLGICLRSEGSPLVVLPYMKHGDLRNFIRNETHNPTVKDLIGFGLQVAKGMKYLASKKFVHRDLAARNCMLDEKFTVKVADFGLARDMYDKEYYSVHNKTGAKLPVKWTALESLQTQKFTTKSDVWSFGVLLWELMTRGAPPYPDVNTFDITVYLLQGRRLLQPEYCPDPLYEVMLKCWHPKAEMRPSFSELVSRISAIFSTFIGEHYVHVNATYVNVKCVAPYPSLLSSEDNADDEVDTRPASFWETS

CN(C(=O)CN1CCOCC1)c1ccc2sc3c(-c4cccc5c(=O)cc(N6CC7CCC(C6)O7)oc45)cccc3c2c1 [NU5455]
inhibition at 1 µM: -14.5%
